The text below walks through data of ChEMBL document CHEMBL4477271, “Synthesis and antitumor activity evaluation of 4,6-disubstituted quinazoline derivatives as novel PI3K inhibitors” (Bioorg Med Chem Lett, 2016).

For one data set, the system named is HCT-116. Put plainly: Antiproliferative activity against human HCT116 cells harboring PI3CA H1047R mutant after 72 hrs by MTT assay. It is filed as functional, cell-based. To be noted: HCT-116, 72 h.
A further data set relates to MCF7. Put plainly: Antiproliferative activity against human MCF7 cells harboring PI3CA E545K mutant after 72 hrs by MTT assay. It is filed as functional, cell-based. Particulars: MCF7, 72 h.
The target of data set [1] is Phosphatidylinositol 4,5-bisphosphate 3-kinase catalytic subunit alpha isoform (Homo sapiens, UniProt P42336). Put plainly: Inhibition of PI3Kalpha (unknown origin) assessed as reduction in ATP depletion using lipid substrate after 40 mins by Kinase-Glo luminescent assay. (In Kinase-Glo more light means more ATP remaining.)
Data set [2] addresses Phosphatidylinositol 4,5-bisphosphate 3-kinase catalytic subunit beta isoform (Homo sapiens, UniProt P42338). Put plainly: Inhibition of PI3Kbeta (unknown origin) assessed as reduction in ATP depletion using lipid substrate after 40 mins by Kinase-Glo luminescent assay.
The target of data set [3] is T1, Phosphatidylinositol 4,5-bisphosphate 3-kinase catalytic subunit delta isoform (Homo sapiens, UniProt O00329).
T1 sequence (O00329 whole entry): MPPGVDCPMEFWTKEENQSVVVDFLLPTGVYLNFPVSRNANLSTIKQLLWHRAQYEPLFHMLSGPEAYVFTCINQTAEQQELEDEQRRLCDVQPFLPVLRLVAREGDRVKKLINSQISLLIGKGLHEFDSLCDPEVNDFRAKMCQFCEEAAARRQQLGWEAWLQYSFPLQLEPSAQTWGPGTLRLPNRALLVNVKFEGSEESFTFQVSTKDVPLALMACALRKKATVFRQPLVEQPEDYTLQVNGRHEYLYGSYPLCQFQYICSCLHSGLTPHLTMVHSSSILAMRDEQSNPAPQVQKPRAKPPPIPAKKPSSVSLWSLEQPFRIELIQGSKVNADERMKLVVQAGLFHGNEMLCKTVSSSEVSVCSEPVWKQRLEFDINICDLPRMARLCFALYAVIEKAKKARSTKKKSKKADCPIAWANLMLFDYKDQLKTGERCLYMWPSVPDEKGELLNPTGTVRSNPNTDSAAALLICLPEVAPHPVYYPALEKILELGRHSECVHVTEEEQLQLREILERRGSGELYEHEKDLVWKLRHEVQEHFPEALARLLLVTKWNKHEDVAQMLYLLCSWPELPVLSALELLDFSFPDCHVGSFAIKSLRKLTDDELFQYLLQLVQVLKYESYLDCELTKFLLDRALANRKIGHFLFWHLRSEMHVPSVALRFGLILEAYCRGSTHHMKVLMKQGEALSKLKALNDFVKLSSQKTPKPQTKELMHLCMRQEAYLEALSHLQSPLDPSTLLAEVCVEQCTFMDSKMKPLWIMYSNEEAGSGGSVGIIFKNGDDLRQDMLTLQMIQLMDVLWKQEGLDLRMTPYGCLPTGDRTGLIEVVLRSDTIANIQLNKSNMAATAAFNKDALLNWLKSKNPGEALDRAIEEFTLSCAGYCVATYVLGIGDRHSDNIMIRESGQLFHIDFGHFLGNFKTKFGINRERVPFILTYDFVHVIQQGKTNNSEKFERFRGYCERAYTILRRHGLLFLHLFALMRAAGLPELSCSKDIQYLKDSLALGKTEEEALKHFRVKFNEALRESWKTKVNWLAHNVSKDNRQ
Put plainly: Inhibition of PI3Kdelta (unknown origin) assessed as reduction in ATP depletion using lipid substrate after 40 mins by Kinase-Glo luminescent assay.

Data set [4] concerns the target Phosphatidylinositol 4,5-bisphosphate 3-kinase catalytic subunit gamma isoform (Homo sapiens, UniProt P48736). The data set can be described thus: Inhibition of PI3Kgamma (unknown origin) assessed as reduction in ATP depletion using lipid substrate after 40 mins by Kinase-Glo luminescent assay.
Data set [5] deals with CCRF S-180. The data set can be described thus: Antitumor activity against mouse S180 cells implanted in mouse assessed as tumor growth inhibition at 5 mg/kg, po qd for 8 days relative to control. In kind it is functional. To be noted: CCRF S-180, po, 192 h, read-out: TGI.
For data set [6], the system named is CCRF S-180. The data set can be described thus: Antitumor activity against mouse S180 cells implanted in mouse assessed as tumor growth inhibition at 15 mg/kg, po qd for 8 days relative to control. In kind it is functional. To be noted: CCRF S-180, po, 192 h, read-out: TGI.
Data set [7] has as its system CCRF S-180. The data set can be described thus: Antitumor activity against mouse S180 cells implanted in mouse assessed as tumor growth inhibition at 50 mg/kg, po qd for 8 days relative to control. To be noted: CCRF S-180, po, 192 h, read-out: TGI. It is filed as functional.
The nature of data set [8]: Toxicity in mouse implanted with mouse S180 cells assessed as body weight loss at 5 to 50 mg/kg, po qd for 8 days. It is filed as organism-based. To be noted: in vivo, 192 h.

Sequence of Phosphatidylinositol 4,5-bisphosphate 3-kinase catalytic subunit alpha isoform (P42336 whole entry, canonical isoform): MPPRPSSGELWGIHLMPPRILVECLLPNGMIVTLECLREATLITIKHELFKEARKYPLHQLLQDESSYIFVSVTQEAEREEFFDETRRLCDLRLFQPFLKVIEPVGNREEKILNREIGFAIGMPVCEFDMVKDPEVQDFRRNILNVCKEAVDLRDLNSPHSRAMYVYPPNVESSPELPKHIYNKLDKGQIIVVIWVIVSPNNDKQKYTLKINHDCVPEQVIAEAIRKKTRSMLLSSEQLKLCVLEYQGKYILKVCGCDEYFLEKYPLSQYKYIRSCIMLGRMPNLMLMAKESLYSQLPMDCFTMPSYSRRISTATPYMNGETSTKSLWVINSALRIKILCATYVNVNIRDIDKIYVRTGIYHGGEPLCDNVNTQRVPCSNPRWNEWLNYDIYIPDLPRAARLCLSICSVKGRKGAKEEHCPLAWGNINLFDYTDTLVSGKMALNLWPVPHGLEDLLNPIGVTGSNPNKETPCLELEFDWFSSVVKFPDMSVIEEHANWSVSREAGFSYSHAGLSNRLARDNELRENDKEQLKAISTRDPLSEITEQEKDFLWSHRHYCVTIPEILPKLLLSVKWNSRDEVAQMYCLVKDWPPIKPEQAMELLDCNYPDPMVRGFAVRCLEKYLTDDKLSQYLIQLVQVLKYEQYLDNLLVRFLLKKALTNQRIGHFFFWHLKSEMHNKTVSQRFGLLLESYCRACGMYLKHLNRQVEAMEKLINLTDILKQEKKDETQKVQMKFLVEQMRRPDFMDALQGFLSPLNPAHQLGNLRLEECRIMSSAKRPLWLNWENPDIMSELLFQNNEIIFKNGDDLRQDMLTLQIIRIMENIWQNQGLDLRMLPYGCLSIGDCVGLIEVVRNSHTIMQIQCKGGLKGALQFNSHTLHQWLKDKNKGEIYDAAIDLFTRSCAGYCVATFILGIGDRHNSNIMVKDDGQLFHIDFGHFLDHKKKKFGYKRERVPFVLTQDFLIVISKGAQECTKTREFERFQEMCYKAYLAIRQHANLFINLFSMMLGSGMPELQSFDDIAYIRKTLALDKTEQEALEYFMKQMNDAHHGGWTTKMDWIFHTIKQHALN
Sequence of Phosphatidylinositol 4,5-bisphosphate 3-kinase catalytic subunit beta isoform (P42338 whole entry, canonical isoform): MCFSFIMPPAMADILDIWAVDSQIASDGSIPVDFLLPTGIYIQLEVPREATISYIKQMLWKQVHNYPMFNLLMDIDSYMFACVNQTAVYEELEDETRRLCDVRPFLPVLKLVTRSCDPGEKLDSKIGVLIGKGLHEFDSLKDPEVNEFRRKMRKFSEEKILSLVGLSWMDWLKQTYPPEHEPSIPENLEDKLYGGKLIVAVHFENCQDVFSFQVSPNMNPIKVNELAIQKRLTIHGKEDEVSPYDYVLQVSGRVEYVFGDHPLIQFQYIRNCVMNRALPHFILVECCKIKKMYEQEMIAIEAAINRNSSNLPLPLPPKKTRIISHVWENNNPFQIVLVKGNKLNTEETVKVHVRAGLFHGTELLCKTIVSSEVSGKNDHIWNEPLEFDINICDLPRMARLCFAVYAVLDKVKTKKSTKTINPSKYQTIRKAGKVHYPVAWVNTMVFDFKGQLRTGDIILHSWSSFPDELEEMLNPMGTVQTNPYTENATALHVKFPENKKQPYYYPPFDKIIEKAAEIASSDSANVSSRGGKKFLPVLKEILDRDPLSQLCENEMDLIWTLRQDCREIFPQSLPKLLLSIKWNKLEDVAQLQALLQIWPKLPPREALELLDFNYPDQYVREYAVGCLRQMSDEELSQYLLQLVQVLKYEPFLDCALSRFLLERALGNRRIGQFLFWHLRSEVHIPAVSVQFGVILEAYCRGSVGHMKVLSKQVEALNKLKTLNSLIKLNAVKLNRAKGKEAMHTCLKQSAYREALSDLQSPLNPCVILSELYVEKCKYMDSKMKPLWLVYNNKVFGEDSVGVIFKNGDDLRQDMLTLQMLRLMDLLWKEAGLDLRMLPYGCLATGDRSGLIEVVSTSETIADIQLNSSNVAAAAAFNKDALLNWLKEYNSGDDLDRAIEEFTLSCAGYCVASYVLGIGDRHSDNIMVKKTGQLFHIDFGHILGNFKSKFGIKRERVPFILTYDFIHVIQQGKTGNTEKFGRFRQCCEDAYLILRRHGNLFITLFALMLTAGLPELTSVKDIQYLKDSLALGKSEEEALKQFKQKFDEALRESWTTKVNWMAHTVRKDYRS
Sequence of Phosphatidylinositol 4,5-bisphosphate 3-kinase catalytic subunit gamma isoform (P48736 whole entry, canonical isoform): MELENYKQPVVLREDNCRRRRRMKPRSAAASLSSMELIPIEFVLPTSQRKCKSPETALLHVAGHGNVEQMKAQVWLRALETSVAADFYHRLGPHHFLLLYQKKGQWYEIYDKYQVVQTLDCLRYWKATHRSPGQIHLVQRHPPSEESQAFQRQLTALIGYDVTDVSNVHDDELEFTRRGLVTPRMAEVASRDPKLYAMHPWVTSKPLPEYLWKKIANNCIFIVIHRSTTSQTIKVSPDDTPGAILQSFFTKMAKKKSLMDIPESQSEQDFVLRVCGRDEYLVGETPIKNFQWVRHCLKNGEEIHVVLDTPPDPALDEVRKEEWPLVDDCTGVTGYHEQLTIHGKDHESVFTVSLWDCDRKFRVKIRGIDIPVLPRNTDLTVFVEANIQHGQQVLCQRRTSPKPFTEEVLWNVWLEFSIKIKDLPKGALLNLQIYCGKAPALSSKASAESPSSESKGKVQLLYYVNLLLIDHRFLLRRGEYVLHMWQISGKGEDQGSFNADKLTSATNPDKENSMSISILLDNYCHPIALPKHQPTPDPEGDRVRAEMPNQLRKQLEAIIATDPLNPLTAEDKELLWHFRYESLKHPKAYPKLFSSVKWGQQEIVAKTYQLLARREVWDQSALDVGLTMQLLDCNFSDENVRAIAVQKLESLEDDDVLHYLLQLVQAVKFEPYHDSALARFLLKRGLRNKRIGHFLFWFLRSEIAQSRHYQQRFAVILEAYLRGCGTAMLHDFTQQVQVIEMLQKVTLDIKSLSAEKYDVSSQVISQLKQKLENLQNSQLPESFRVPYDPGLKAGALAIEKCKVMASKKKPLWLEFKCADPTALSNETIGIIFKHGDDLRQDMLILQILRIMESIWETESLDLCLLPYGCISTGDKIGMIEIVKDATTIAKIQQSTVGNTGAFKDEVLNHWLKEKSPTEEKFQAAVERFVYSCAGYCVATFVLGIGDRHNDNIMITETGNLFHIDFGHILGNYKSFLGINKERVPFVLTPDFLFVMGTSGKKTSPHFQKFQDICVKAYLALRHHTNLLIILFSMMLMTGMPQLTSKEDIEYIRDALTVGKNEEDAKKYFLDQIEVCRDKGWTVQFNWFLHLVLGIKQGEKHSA

As a reminder, the IC50 is the concentration at which inhibition is half-maximal. Turning to `COc1ccc(-c2ccc3ncnc(NCCN4CCCCC4)c3c2)cc1C(N)=O`, the IC50 amounted to 29.4 µM in the data set with HCT-116 and 39.1 µM with MCF7.

In the case of `COc1ccc(-c2ccc3ncnc(NCCN(C)C)c3c2)cn1`, the IC50 in the data set with HCT-116 amounted to 15.8 µM; in the data set on MCF7, 2.97 µM.

`COc1ncc(-c2ccc3ncnc(NCCN(C)C)c3c2)cc1C#N`: the IC50 is 0.56 µM with HCT-116, 3.23 µM in the data set on MCF7 and 3.01 µM in [1].

On to `COc1ncc(-c2ccc3ncnc(OCCN(C)C)c3c2)cc1[N+](=O)[O-]`, for which the results for the half-inhibitory concentration (IC50) with HCT-116 and in the data set on MCF7 were 9.38 µM and 7.26 µM, respectively.

As to `CCN(CC)CCNc1ncnc2ccc(-c3cnc(OC)c([N+](=O)[O-])c3)cc12`, the figures for the IC50 in the data set with HCT-116 and with MCF7 were 7.33 µM and 16.3 µM, respectively.

On to `COc1ccc(-c2ccc3ncnc(NCCN4CCCCC4)c3c2)cn1`, for which the IC50 in the data set on HCT-116 was 22.2 µM; in the data set with MCF7, 2.42 µM.

As to `COc1ncc(-c2ccc3ncnc(NCCN4CCCCC4)c3c2)cc1C#N`, the values for the IC50 in the data set with HCT-116 and in the data set on MCF7 were 2.68 µM and 2.74 µM, respectively.

As for `COc1ncc(-c2ccc3ncnc(OCCN(C)C)c3c2)cc1C#N`, the IC50 was found to be 5.16 µM in the data set with HCT-116 and 6.68 µM in the data set on MCF7.

Regarding `COc1ncc(-c2ccc3ncnc(NCCN4CCOCC4)c3c2)cc1C#N`, the IC50 with HCT-116 stood at 0.51 µM; in the data set on MCF7 it was 2.1 µM; in data set [1], 0.465 µM; in data set [2] it was 0.3 µM; in data set [3], 0.037 µM; in data set [4], 0.934 µM. Besides, the inhibition in vivo at 5 mg/kg with CCRF S-180 [5] was 33%. For the same compound, the inhibition in vivo at 15 mg/kg with CCRF S-180 [6] came to 49%. In the data set with CCRF S-180 [7], the inhibition in vivo at 50 mg/kg stood at 68.4%. Besides, the Activity result in data set [8] is “Non-Toxic”.

As to `COc1ncc(-c2ccc3ncnc(NCCN4CCOCC4)c3c2)cc1[N+](=O)[O-]`, the IC50 in the data set with HCT-116 worked out at 1.8 µM; in the data set with MCF7, 2.87 µM.

Regarding `COc1ncc(-c2ccc3ncnc(NCCN4CCCC4)c3c2)cc1C#N`, the values for the IC50 in the data set with HCT-116 and in the data set with MCF7 were 2.35 µM and 6.22 µM, respectively.

`CCN(CC)CCNc1ncnc2ccc(-c3cnc(OC)c(C#N)c3)cc12`: the IC50 in the data set with HCT-116 turned out to be 2.05 µM; with MCF7 it was 3.86 µM.

Consider `COc1ccc(-c2ccc3ncnc(NCCN4CCOCC4)c3c2)cn1`, for which the IC50 in the data set with HCT-116 was 38.6 µM; in the data set with MCF7, 34.3 µM.

On to `COc1ncc(-c2ccc3ncnc(NCCN4CCCCC4)c3c2)cc1[N+](=O)[O-]`, for which the IC50 in the data set with HCT-116 stood at 0.65 µM; with MCF7, 8.61 µM; in [1], 3.17 µM.

On to `COc1ccc(-c2ccc3ncnc(NCCN4CCOCC4)c3c2)cc1C(N)=O`, for which the half-maximal inhibitory concentration (IC50) was determined as 24.4 µM in the data set with HCT-116 and 29.3 µM in the data set with MCF7.

For `CCN(CC)CCNc1ncnc2ccc(-c3ccc(OC)nc3)cc12`, the IC50 in the data set with HCT-116 came out at 9.56 µM; with MCF7, 8.74 µM.

As for `COc1ccc(-c2ccc3ncnc(NCCN4CCCC4)c3c2)cn1`, the results for the IC50 in the data set with HCT-116 and with MCF7 were 3.91 µM and 10.1 µM, respectively.
